Assay results reported in patent publication US11419878B2, “Medicine obtained by combining FXR agonist and ARB” (Intercept Pharmaceuticals, Inc., priority 2016, dated 2022).

What was measured:
TGF-β1 [1] = assay: Rat NASH model, RT-PCR of hepatic TGF-β1 mRNA expression; assay type: in vivo; settings: OLETF rats, PS 8 weeks, obeticholic acid 30 mg/kg/day and/or losartan 30 mg/kg/day oral
Experimental: (§1) Using the liver sections from the rats in the various groups obtained in working example 1, an immunohistochemical study by immunohistological staining with α-smooth muscle actin (α-SMA) antibody and a quantitative analysis of transforming growth factor-β1 TGF-β1) and collagen (α1(I) procollagen) mRNA expression were conducted. α-SMA is known to be an indicator (marker) of activation of hepatic stellate cells (HSCs) (also known as hepatic star cells). Moreover, activation of hepatic stellate cells (HSC), overproduction of TGF-β1 (a fibrosis-promoting cytokine) accompanying said activation, and overproduction of extracellular matrix components such as collagen are thought to play a central role in the mechanism of progressive hepatic fibrosis in NASH. For this reason, mRNA expression of TGF-β1 and collagen (α1(I) procollagen) can be a fibrosis indicator (marker).
(§2) A comparative study was conducted by analyzing TGF-β1 and collagen (α1(I) procollagen) mRNA expression in the livers of the rates of the various groups of working example 1 by means of the quantitative real-time polymerase chain reaction (RT-PCR). Quantitation of the mRNA expression levels by RT-PCR was conducted on a StepOne Plus™ system (manufactured by Applied Biosystems®) using the fluorescent dye SYBR® Green

α1(I) procollagen [2] = assay: Rat NASH model, RT-PCR of hepatic α1(I) procollagen mRNA expression; assay type: in vivo; settings: OLETF rats, PS 8 weeks, obeticholic acid 30 mg/kg/day and/or losartan 30 mg/kg/day oral
Experimental: as §1, §2

TGF-β1 [3] = assay: HHSC fibrosis marker gene expression, RT-PCR, TGF-β1; assay type: cell-based, human; settings: AT-II 10^-6M + LPS 10^-5M; ARB 10^-6M, obeticholic acid 5×10^-6M; 24 hours; monotherapy vs G2AL, combination vs monotherapy groups
Experimental: (§3) The various combined effects of obeticholic acid and three types of ARBs (losartan, valsartan, and candesartan) were confirmed in an in vitro cell system experiment. Specifically, using human hepatic stellate cells (HHSC), which are implicated in the main mechanism of progression of hepatic fibrosis in NASH, the effects of administration of obeticholic acid in combination with the three ARBs of inhibiting HHSC proliferation capacity and the expression of fibrosis markers were evaluated according to the following method. Human hepatic stellate cells (HHSC) (also referred to as human hepatic star cells) Obeticholic acid (obtained from Intercept Pharmaceuticals, Inc. via Sumitomo Dainippon Pharma Co., Ltd.) was used as an FXR agonist, and commercial losartan (potassium salt of losartan; referred to in this working example simply as “losartan”) and valsartan and candesartan ([…] of candesartan; referred to in this working example simply as “candesartan”) were used as ARBs. Angiotensin II (AT-II) and/or lipopolysaccharide (LPS) were used (both AT1-mediated AT-II signalling and TLR4-mediated LPS signaling are known to play major roles in HSC activation and the progression of hepatic fibrosis). With respect to the effect of inhibiting fibrosis marker gene expression, collagen production capacity and TGF-β production capacity were evaluated by the RT-PCR method. 1) HHSCs were inoculated onto a 6-well plate in the amount of 300,000 cells/2 ml and allowed to proliferate in 1% FBS DMEM medium for 24 hours. 2) After 24 hours, the cells were divided into the following 7 groups and transferred to culture medium after adding the following drugs and/or reagents. Losartan was used as an ARB. Negative control group (G1): No drugs added (control) […] AT-II (10^-6M) Positive control group L […]): LPS (10^-5M) Positive control group AL ([…]): (10^-6M)+LPS (10^-5M) Obeticholic acid administration (G3): AT-II (10^-6M)+LPS (10^-5M)+obeticholic acid (5×10^-6M) ARB administration (G4): AT-II (10^-6M)+LPS (10^-5M)+ARB (10^-6M) Obeticholic acid+ARB combined administration (G5): AT-II (10^-6M)+LPS (10^-5M)+obeticholic acid (5×10^-6M)+ARB (10^-6M) […] Evaluations were conducted in the five groups G1, G2AL, G3, G4, and G5.

α1(I) procollagen [4] = assay: HHSC fibrosis marker gene expression, RT-PCR, α1(I) procollagen; assay type: cell-based, human; settings: AT-II 10^-6M + LPS 10^-5M; ARB 10^-6M, obeticholic acid 5×10^-6M; 24 hours; monotherapy vs G2AL, combination vs monotherapy groups
Experimental: as §3

[5] = system: C57Bl/6J mice fed a CDAHFD; assay: Murine NASH model (CDAHFD-fed mice), serum ALT activity; assay type: in vivo, mouse; settings: obeticholic acid 10 mg/kg/day and/or losartan 30 mg/kg/day oral, 3 weeks from 6 weeks of diet
Text: According to the NASH/NAFLD Practice Guideline of 2015 (Japan Society of Hepatology, NASH/NAFLD Practice Guideline 2015. Tokyo: Bunkodo; 2015.), the important factors in NASH diagnostic screening are an abdominal ultrasound diagnosis of fatty liver and abnormal ALT (alanine aminotransferase) values. The diagnosis of NASH is confirmed by liver biopsy, with control of obesity/hypertension/lipid abnormalities being one of the basic criteria, and continuing high values for transaminases (aminotransferases) are also significant. […] Aliment Pharmacol Ther. 2013 Jul. 38 (2): 134-43). Based on the above findings, as ALT is considered an important prognostic factor in the progression of NASH, treatment to improve ALT levels is expected to alleviate the pathology of NASH. For this reason, evaluation was conducted using the animal model of reduction of ALT below, and the effects of monotherapy and combined administration of an FXR agonist (obeticholic acid) and an ARB (losartan) were studied.
The same method was used as in working example 7.
Male C57Bl/6J mice (n=50) […]
In order to evaluate serum alanine aminotransferase (ALT) activity, blood samples were taken from mice that had completed the above-mentioned testing, and the serum was separated. Using a pharmaceutical product for in vitro diagnosis, ALT activity in the serum samples was enzymatically measured.

Row | Compound | TGF-β1 mRNA expression in liver compared to the positive control group (TGF-β1 [1]) | α1(I) procollagen mRNA expression in liver compared to the positive control group (α1(I) procollagen [2]) | TGF-β1 mRNA expression induced by AT-II and LPS in HHSC (TGF-β1 [3]) | α1(I)-procollagen mRNA expression induced by AT-II and LPS in HHSC (α1(I) procollagen [4]) | improvement in serum ALT activity versus the positive control group [5]
1 | CC[C@H]1[C@@H](O)[C@@H]2[C@H](CC[C@]3(C)[C@@H]([C@H](C)CCC(=O)O)CC[C@@H]23)[C@@]2(C)CC[C@@H](O)C[C@@H]12 [obeticholic acid, 3α,7α-dihydroxy-6α-ethyl-5β-cholan-24-oic acid] | moderate decreasing tendency | moderate decreasing tendency | statistically significant inhibition | statistically significant inhibition | only an improving trend
2 | CCCCc1nc(Cl)c(CO)n1Cc1ccc(-c2ccccc2-c2nn[nH]n2)cc1 [losartan] | moderate decreasing tendency | moderate decreasing tendency | statistically significant inhibition | statistically significant inhibition | only an improving trend
